Results from article PMC5371824, “Phosphatidylinositol (4,5)-bisphosphate dynamically regulates the K2P background K^+ channel TASK-2” (Scientific Reports, 2017).
Several values for one entry are separate records, joined by “and”; a condition that tells them apart may be missing. Equal entries are not always repeated.

Legend:
TASK-2 = biological target: T1, TASK-2 (Mus musculus, UniProt F6V9U5); experiment: Excised inside-out patch recording from HEK-293 cells over-expressing TASK-2; format: biochemical
T1 construct: expressed in transfected cells; host or cells: HEK-293
T1 sequence (F6V9U5 1-502): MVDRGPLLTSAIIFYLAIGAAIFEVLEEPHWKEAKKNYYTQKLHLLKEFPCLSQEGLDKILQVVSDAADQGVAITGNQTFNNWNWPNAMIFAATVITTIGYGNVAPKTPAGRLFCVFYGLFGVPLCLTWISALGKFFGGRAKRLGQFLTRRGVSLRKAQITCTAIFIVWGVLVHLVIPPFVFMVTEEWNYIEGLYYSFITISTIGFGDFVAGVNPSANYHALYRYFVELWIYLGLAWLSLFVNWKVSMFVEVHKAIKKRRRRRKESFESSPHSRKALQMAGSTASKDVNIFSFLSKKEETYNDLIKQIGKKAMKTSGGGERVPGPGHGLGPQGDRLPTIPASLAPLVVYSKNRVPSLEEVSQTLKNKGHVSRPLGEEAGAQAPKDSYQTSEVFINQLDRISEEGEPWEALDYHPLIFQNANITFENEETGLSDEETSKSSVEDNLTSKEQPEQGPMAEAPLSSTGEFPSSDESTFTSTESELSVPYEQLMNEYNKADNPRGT

KCNQ1/KCNE1 = system: KCNQ1/KCNE1; parameters: method as in PMID 21576493; settings: read-out: EC50 for PI(4,5)P2 effect; cited from earlier work

Effect of readmitted ATP relative to the maximal effect elicited by the PIP (TASK-2; 1 mM ATP added after PIP, inside-out patches, Fig. S3): 1.7 fold | Stimulating effect on TASK-2-mediated currents after run-down (TASK-2; diC8 PIP added to inside-out excised patches, absence of ATP): Robust, but intermediate effects | Maximal fold effect on TASK-2 current (normalised to current in absence of PIP) (TASK-2; diC8 PIP, inside-out patch, -60 mV, absence of ATP, from fits, means ± SEM): 3.7 ± 0.2 fold | EC50 (TASK-2; diC8 PIP, inside-out patch, -60 mV, absence of ATP, from fits, means ± SEM, read-out: K0.5 (EC50) for activation of TASK-2 current): 34.9 µM and 35 µM
SMILES: CCCCCCCC(=O)OC[C@H](COP(=O)(O)O[C@@H]1[C@H](O)[C@H](O)[C@@H](OP(=O)(O)O)[C@H](OP(=O)(O)O)[C@H]1O)OC(=O)CCCCCCC [PI(4,5)P2, phosphatidylinositol 4,5-bisphosphate diC8]
EC50 (KCNQ1/KCNE1): 5 µM
